Source: ChEMBL document CHEMBL4177526, “Discovery and structure activity relationship of the first potent cryptosporidium FIKK kinase inhibitor” (Bioorg Med Chem, 2017)

Test system: RAC-alpha serine/threonine-protein kinase (Homo sapiens), P31749 [S473D]
Assay: Inhibition of human PKBalpha S473D mutant (118 to 480 residues) assessed as residual activity at 500 nM in presence of 33P-ATP by filter binding assay relative to control

RAC-alpha serine/threonine-protein kinase (Homo sapiens), P31749 [S473D], sequence (P31749 whole entry S473D, the tested form may be a part): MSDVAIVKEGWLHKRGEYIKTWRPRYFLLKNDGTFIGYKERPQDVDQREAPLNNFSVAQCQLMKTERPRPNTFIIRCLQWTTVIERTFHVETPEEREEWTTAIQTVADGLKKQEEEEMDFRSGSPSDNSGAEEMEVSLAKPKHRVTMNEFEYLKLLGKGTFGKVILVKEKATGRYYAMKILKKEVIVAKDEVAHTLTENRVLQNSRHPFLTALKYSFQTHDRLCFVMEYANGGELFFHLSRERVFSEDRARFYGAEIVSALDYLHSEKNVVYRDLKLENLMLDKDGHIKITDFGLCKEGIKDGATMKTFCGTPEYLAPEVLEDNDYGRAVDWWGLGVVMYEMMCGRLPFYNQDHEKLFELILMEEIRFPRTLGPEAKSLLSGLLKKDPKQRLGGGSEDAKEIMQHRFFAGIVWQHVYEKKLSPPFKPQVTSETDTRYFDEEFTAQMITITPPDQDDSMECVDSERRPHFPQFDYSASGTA

Activity: 115%
SMILES: Cc1cccc(-c2nc(N)sc2-c2ccc3ncccc3n2)c1
